Assay results reported in patent publication US20180264191A1, “SYSTEMS AND METHODS FOR NEURAL DRUG DELIVERY AND MODULATION OF BRAIN ACTIVITY” (priority 2017, published 2018).

Assays:
[1] = test system: local neuronal activity in the neocortex; experiment: Unit firing and local field potential recording with serial infusions through L-MiNDS in awake head-fixed monkey; type: in vivo, rhesus macaque (Macaca mulatta); conditions: for rate of detected spike activity (local unit firing): muscimol 2 mg/ml in aCSF, 500 nl at 100 nl/min for 5 mins
Method: The functionality of the system (specifically, the L-MiNDS) was confirmed in a large, awake behaving animal model, the rhesus macaque (macacca mulatta) monkey. The L-MiNDS was used to modulate and monitor local neuronal activity in the neocortex of a head-fixed monkey through serial infusions of aCSF and muscimol, which respectively preserve and inhibit baseline unit firing activity, as depicted in FIG. 21A. The 1st vertical line on left indicates the start of aCSF infusion (at 20 mins) and the 2nd vertical line denotes the muscimol infusion (at 63.7 mins). The impedance measurement of the W-electrode was 1.5 MΩ in brain and at pre-implantation in saline was 2 MΩ. Modulation of neuronal firing activity was monitored by recording signals at the MiNDS electrode adjoining the infusion ports. […] Then, aCSF was infused for 5 mins 20 s at an infusion rate of 100 nl/min. This control infusion had minimal effect on the local firing rate and unit waveform during and after the infusion. Muscimol was then infused at the same location for 5 mins at infusion rate of 100 nl/min. […] Vertical and horizontal bars denote 10 μV and 2 ms, respectively.
A second experiment was conducted targeting deeper layers of the neocortical region (i.e., dorsal bank of the cingulate cortex) to determine if recovery of the reduced neural activity through an additional infusion of aCSF could be induced at this adjoining site. This larger infusion of aCSF was indeed effective in reversing the inhibitory effect of muscimol, as shown by the observation of an increasing frequency of spikes with waveforms closely resembling those found during the pre-muscimol period, as depicted in FIGS. 23A-23C. In particular, the 1st vertical line on left in FIG. 23A denotes the start of aCSF infusion (at 20 mins), the second vertical line represents the start of muscimol infusion (at 43 mins), and the third vertical line denotes the start of aCSF infusion (at 92 mins). In FIG. 23Cm vertical and horizontal bars denote 10 μV and 2 ms, respectively. […] Compared to prior work, this is the first system that allows serial infusion of multiple distinct solutions to be delivered in a focal, independent manner in a NHP. The system's integrated electrode can also be used to record local field potentials (LFPs), as shown in FIGS. 24A and 24B, which may be important for clinical applications that may require chronic recording from a fixed brain location. For example, pathological beta-band LFP in Parkinson's disease and/or epileptic discharges in epilepsy could be recorded from the chronically integrated electrode to track and treat dysfunction in future applications. In FIG. 24A, two curves for each period represent 95% confidence intervals. Each pair of curves correspond to signals averaged over 10 mins periods as labeled in the legend at the top right of each plot. […] Alpha (5-11 Hz) and beta (11-30 Hz) band power fluctuate without correlation to the infusions. The prominent power at 60 Hz is due to coupling of power mains noise. […]
Solutions used for infusion through the MiNDS were aCSF (artificial cerebrospinal fluid, Tocris Biosciences) and muscimol (2 mg/ml in aCSF, Sigma-Aldrich). The MiNDS and guide cannula were sonicated in a detergent solution (Alconox, Inc.), rinsed with water, and then sonicated and soaked in 70% ethanol followed by water until they were ready for implantation. […]

substantia nigra (SN) = experiment: Behavioral study: rotations after unilateral infusion into the substantia nigra through S-MiNDS with iPrecio pumps; type: in vivo; conditions: rat
Method: The capability of interfacing the system with deep brain structures to remotely control behavior was tested. In experiments in rats, the S-MiNDS was implanted in the SN and was connected to two implanted iPrecio pumps, containing either saline or muscimol. Unilateral delivery of muscimol to the SN is known to evoke preferential ipsilateral rotation, reflecting a hemiparkinsonian state. […] These studies were performed multiple times on each of multiple animals. This illustrates the ability of system to repeatedly and reproducibly deliver small volumes of drug to effect a reversible behavioral change.
A similar protocol as described above was used to implant the MiNDS with the iPrecio pumps. Rats were anesthetized, and their heads were shaved and disinfected. A longer incision was made to accommodate the insertion of the pumps. As aforementioned, the MiNDS burr hole was made 5 mm posterior to the bregma and 2.5 mm lateral to the midline, and a support screw burr hole was made 3 mm posterior and 2 mm lateral to the bregma, on the opposite side. The screw was implanted, such that 1 mm protruded beneath the skull. A subcutaneous cavity for the pump was made by blunt dissection, and the pump was inserted through the incision. The MiNDS probe was implanted and cemented to the skull using C&B Metabond adhesive (Parkell Inc., Edgewood N.Y.) and Orthojet dental cement (Lange Dental, Wheeling, Ill. USA), and the incision was closed using 5-0 monofilament non-resorbable suture and 3M tissue glue. Animals were closely observed during the recovery period and given analgesics and wet food. By 1 week post-surgery, in all cases animals were ambulatory and otherwise healthy. Animals implanted with pumps were used for the behavioral studies described below. […]
A rat was implanted with the MiNDS and two pumps pre-loaded and flushed with either saline or muscimol, as described above. The animal was placed within the dish and recorded over the course of 5 hrs. […]
Videos were imported into Ethovision, where they were analyzed for ipsilateral and contralateral rotations over time. […]

hippocampal (CA1) unit = experiment: Acute tetrode recording with local micro-injection through MiNDS in anesthetized rats; type: in vivo; conditions: anesthetized rat
Method: Acute electrophysiological recordings and micro-injections were performed in anesthetized rats to test the system with a tetrode W electrode. […] The channel impedance values of the tetrode electrode (T-1, T-2, T-3, T-4) were 430, 370, 440, and 370 kΩ. […] The mean of the action potentials recorded from this unit was stable during the experiment (i.e. before first saline infusion, before first and second muscimol infusions), confirming that the unit was present during the trial, as shown in FIGS. 18A-C. […] Peak 1 and Peak 2 are the maximal value of waveforms measured by T-1, T-2, respectively. The projections of the peak values calculated from each recorded action potential are shown in FIG. 18C, reflecting the cluster-cutting used to isolate signals coming from different neurons. […]
The dura was removed and the device was lowered into the brain to a depth of 2.5 mm and a location with unit activity was identified. The local neural signals were recorded with Open Ephys GUI software. Prior to drug infusion, the local signals were recorded for 30 mins to ensure stable spikes were located. After the baseline recording, 150 nl of saline were infused into the site at a flow rate of 100 nl/min and the activity was recorded for another 30 mins. […] Recording was recorded for another 30 mins post muscimol infusion. […]

[2] = 1.67 μl of muscimol (0.2 mg/ml) into SN, 180° turns

NCc1cc(=O)[nH]o1 [muscimol]
LFP power for alpha frequencies ([1]; after muscimol infusion): persists | LFP power for broadband, beta, and gamma frequency ranges ([1]; after muscimol infusion): decreases significantly | LFP broadband power from 30-100 Hz ([1]; after muscimol infusion, 10 mins intervals): decreases immediately following muscimol infusion | rate of detected spike activity (local unit firing) [1]: immediately suspended activity | rate of detected spike activity (local unit firing) ([1]; listed as Muscimol): immediately decreased the rate of detected spike activity | counter-clockwise rotations (substantia nigra (SN); [2]): remained the same | increase in the number of clockwise rotations (substantia nigra (SN); [2]): 52 fold | parkinsonian behavior (preferential ipsilateral rotation) (substantia nigra (SN); remotely controlled infusion of 1.67 μl of muscimol (0.2 mg/ml) into SN): reliably induced | firing rate of hippocampal (CA1) unit after first muscimol injection (hippocampal (CA1) unit; local infusion via iPrecio pump, first muscimol infusion at 60 mins): a slow decrease of the firing rate occurred | rate of detected spike activity of hippocampal (CA1) unit after second muscimol injection (hippocampal (CA1) unit; second muscimol infusion at 90 mins): abolished the rate of detected spike activity
